Experimental findings from patent US10501482B2, “Compounds for treating spinal muscular atrophy” (Hoffmann-La Roche Inc., priority 2013, dated 2019) are described below.

Molecules are shown by their SMILES. Structures can show the parent of a compound that is named as a salt.

The test system of one assay is SMN protein. The experiment in a line: SMN protein assay (HTRF) in cultured SMA patient fibroblast cells. Type of assay: cell-based. The note with it: SMA Type 1 human fibroblasts GM03813, 48 hours; for EC1.5x SMN protein (EC1.5x concentration for SMN protein expression): 7-point concentration curve, concentration giving 1.5 times SMN protein vs vehicle; for max. fold increase (maximum fold increase of SMN protein): 7-point concentration data, fold vs vehicle control. How it is done:
The SMN HTRF (homogeneous time resolved fluorescence) assay is used to quantify the level of SMN protein in SMA patient fibroblast cells treated with test compounds.
Cells are thawed and cultured in DMEM-10% FBS for 72 hours. Cells are trypsinized, counted and re-suspended to a concentration of 25,000 cells/mL in DMEM-10% FBS. The cell suspensions are plated at 5,000 cells per well in a 96 well microtiter plate and incubated for 3 to 5 hours. […] 1 μL of test compound solution is transferred to cell-containing wells and cells are incubated for 48 hours in a cell culture incubator (37° C., 5% CO2, 100% relative humidity). Triplicate samples are set up for each test compound concentration. After 48 hours, the supernatant is removed from the wells and 25 μL of the RIPA lysis buffer, containing protease inhibitors, is added to the wells and incubated with shaking at room temperature for 1 hour. 25 μL of the diluent is added and then 35 μL of the resulting lysate is transferred to a 384-well plate, where each well contains 5 μL of the antibody solution (1:100 dilution of anti-SMN d2 and anti-SMN kryptate in SMN reconstitution buffer). The plate is centrifuged for 1 minute to bring the solution to the bottom of the wells, then incubated overnight at room temperature. Fluorescence for each well of the plate at 665 nm and 620 nm is measured on an EnVision multilabel plate reader (Perkin-Elmer).
The normalized fluorescence signal is calculated for each sample, Blank and vehicle control well by dividing the signal at 665 nm by the signal at 620 nm. Normalizing the signal accounts for possible fluorescence quenching due to the matrix effect of the lysate. The ΔF value (a measurement of SMN protein abundance as a percent value) for each sample well is calculated by subtracting the normalized average fluorescence for the Blank control wells from the normalized fluorescence for each sample well, then dividing this difference by the normalized average fluorescence for the Blank control wells and multiplying the resulting value by 100. The ΔF value for each sample well represents the SMN protein abundance from test compound-treated samples. The ΔF value for each sample well is divided by the ΔF value for the vehicle control wells to calculate the fold increase in SMN protein abundance relative to the vehicle control. Table 3 provides EC1.5x concentrations for SMN protein expression that was obtained from the 7-point concentration data generated according to the above procedure for particular compounds of the present invention.
Table 4 provides the maximum fold increase of SMN protein that was obtained from the 7-point concentration data generated according to the above procedure for particular compounds of the present invention

The subject of assay [1] is full length SMN2 minigene mRNA (FL SMN2mini) in HEK293H cells stably transfected with the SMN2-A minigene construct. In words: SMN2 minigene mRNA splicing RT-qPCR assay in cultured cells. It is filed as cell-based. The settings on record: Homo sapiens, HEK293-H, 24 hours, 7-point concentration curve, concentration giving 1.5-fold FL SMN2mini mRNA vs vehicle, read-out: EC1.5x minigene (EC1.5x concentration for production of full length SMN2 minigene mRNA). How it is done: The reverse transcription-quantitative PCR-based (RT-qPCR) assay is used to quantify the level of the full length SMN2 minigene (referred to herein by the term “FL SMN2mini”) mRNA containing SMN2 exon 7 in a HEK293H cell line stably transfected with said minigene and treated with a test compound.
The SMN2-A minigene construct was prepared as described in International Patent Application WO2009/151546A1 page 145 paragraph [00400] to page 147 paragraph [00412](incl. FIG. 1 and FIG. 3 therein).
HEK293H cells stably transfected with the SMN2-A minigene construct (10,000 cells/well) are seeded in 200 μL of cell culture medium (DMEM plus 10% FBS, with 200 μg/mL hygromycin) in 96-well flat-bottom plates and the plate is immediately swirled to ensure proper dispersal of cells and the formation of an even monolayer of cells. Cells are allowed to attach for 6 hours. […] A solution of test compound (1 μL, 200× in DMSO) is added to each cell-containing well and the plate is incubated for 24 hours in a cell culture incubator (37° C., 5% CO2, 100% relative humidity). 2 replicates are prepared for each test compound concentration. The cells are then lysed in the Cells-To-Ct lysis buffer and the lysate is stored at −80° C.
Full length SMN2-A minigene and GAPDH mRNA are quantified using the primers and probes referenced in Table 1. Primer SMN Forward A (SEQ ID NO.1) hybridizes to a nucleotide sequence in exon 7 (nucleotide 22 to nucleotide 40), primer SMN Reverse A (SEQ ID NO.2) hybridizes to a nucleotide sequence in the coding sequence of Firefly luciferase, SMN Probe A (SEQ ID NO.3) hybridizes to a nucleotide sequence in exon 7 (nucleotide 50 to nucleotide 54) and exon 8 (nucleotide 1 to nucleotide 21). The combination of these three oligonucleotides detects only SMN1 or SMN2 minigenes (RT-qPCR) and will not detect endogenous SMN1 or SMN2 genes.
The SMN forward and reverse primers are used at final concentrations of 0.4 μM. The SMN probe is used at a final concentration of 0.15 μM. The GAPDH primers are used at final concentrations of 0.2 μM and the probe at 0.15 μM.
The SMN2-minigene GAPDH mix (15 μL total volume) is prepared by combining 7.5 μL of 2×RT-PCR buffer, 0.4 μL of 25×RT-PCR enzyme mix, 0.75 μL of 20×GAPDH primer-probe mix, 4.0075 μL of water, 2 μL of 10-fold diluted cell lysate, 0.06 μL of 100 μM SMN forward primer, 0.06 μL of 100 μM SMN reverse primer, and 0.225 μL of 100 μM SMN probe.
PCR is carried out at the following temperatures for the indicated time: Step 1: 48° C. (15 min); Step 2: 95° C. (10 min); Step 3: 95° C. (15 sec); Step 4: 60° C. (1 min); then repeat Steps 3 and 4 for a total of 40 cycles.
Each reaction mixture contains both SMN2-A minigene and GAPDH primers/probe sets (multiplex design), allowing simultaneous measurement of the levels of two transcripts.
The increase in the abundance of the FL SMN2mini mRNA relative to that in cells treated with vehicle control is determined from real-time PCR data using a modified ΔΔCt method (as described in Livak and Schmittgen, Methods, 2001, 25:402-8). The amplification efficiency E is calculated from the slope of the amplification curve for FL SMN2mini and GAPDH individually. The abundance of FL SMN2mini and GAPDH mRNA are then calculated as (1+E)^−Ct, where Ct is the threshold value for each amplicon. The abundance of FL SMN2mini mRNA is normalized to GAPDH mRNA abundance. The normalized FL SMN2mini mRNA abundance from test compound-treated samples is then divided by normalized FL SMN2mini mRNA abundance from vehicle-treated cells to determine the level of FL SMN2mini mRNA relative to vehicle control.
Table 2 provides EC1.5x concentrations for production of full length SMN2 minigene mRNA that was obtained from the 7-point concentration data generated according to the above procedure for particular compounds of the present invention.

With `Cc1cn2cc(NC(=O)c3ccc(N4CCNC(C)C4)cc3F)cc(Cl)c2n1` (racemic) [Example 54, rac-N-(8-chloro-2-methylimidazo-[1,2-a]pyridin-6-yl)-2-fluoro-4-(3-methylpiperazin-1-yl)benzamide dihydrochloride], in the assay with SMN protein, the “EC1.5x SMN protein (EC1.5x concentration for SMN protein expression)” value (from here on “EC1.5x SMN protein”) is 0.056 µM and the “max. fold increase (maximum fold increase of SMN protein)” value (“max. fold increase” below) was 1.8217. In assay [1], the EC (1.5-fold) was 0.0128 µM.

As to `Cc1cn2cc(NC(=O)c3ccc(N4CCNC(C)C4)nc3)cc(Cl)c2n1` (racemic) [Example 55, rac-N-(8-chloro-2-methylimidazo[1,2-a]pyridin-6-yl)-6-(3-methylpiperazin-1-yl)nicotinamide dihydrochloride], in the assay with SMN protein, the “EC1.5x SMN protein” value came out at 0.7112 µM and the “max. fold increase” value came to 1.8752. Besides, the EC (1.5-fold) in assay [1] amounted to 0.141 µM.

Turning to `Cc1cn2cc(NC(=O)c3ncc(N4CCNC(C)C4)cc3F)cc(Cl)c2n1` (racemic) [Example 56, rac-N-(8-chloro-2-methylimidazo[1,2-a]pyridin-6-yl)-3-fluoro-5-(3-methyl-piperazin-1-yl)-picolinamide dihydrochloride], in the assay on SMN protein, the “EC1.5x SMN protein” value is 0.07 µM and the “max. fold increase” value came to 1.7299. In addition, in assay [1], the EC (1.5-fold) turned out to be 0.017 µM.

Consider `Cc1cn2cc(NC(=O)c3c(F)cc(N4CCNC(C)C4)cc3F)cc(Cl)c2n1` (racemic) [Example 57, rac-N-(8-chloro-2-methylimidazo[1,2-a]pyridin-6-yl)-2,6-difluoro-4-(3-methylpiperazin-1-yl)benzamide trihydrochloride], for which, in the assay with SMN protein, the “EC1.5x SMN protein” value worked out at 1.7363 µM and the “max. fold increase” value is 1.578. The EC (1.5-fold) in assay [1] is 0.0262 µM.

Take `COc1nc(N2CCNC(C)C2)ccc1C(=O)Nc1cc(F)c2nc(C)cn2c1` (racemic) [Example 74, rac-N-(8-fluoro-2-methylimidazo[1,2-a]pyridin-6-yl)-2-methoxy-6-(3-methylpiperazin-1-yl)nicotinamide]: in the assay on SMN protein, the “EC1.5x SMN protein” value was 0.1524 µM and the “max. fold increase” value was found to be 1.709. Moreover, the EC (1.5-fold) in assay [1] was 0.0161 µM.

Take `COc1cc(N2CCNC(C)C2)ncc1C(=O)Nc1cc(F)c2nc(C)cn2c1` (racemic) [Example 76, rac-N-(8-fluoro-2-methylimidazo[1,2-a]pyridin-6-yl)-4-methoxy-6-(3-methylpiperazin-1-yl)nicotinamide]: in the assay with SMN protein, the “EC1.5x SMN protein” value was determined as 0.1629 µM and the “max. fold increase” value amounted to 1.7274. The EC (1.5-fold) in assay [1] was determined as 0.0187 µM.

For `Cc1cn2cc(NC(=O)c3ccc(N4CCN(C)C(C)C4)nc3)ccc2n1` (racemic) [Example 82, rac-6-(3,4-dimethylpiperazin-1-yl)-N-(2-methylimidazo[1,2-a]pyridin-6-yl)nicotinamide], in the assay with SMN protein, the “EC1.5x SMN protein” value was found to be 0.7698 µM and the “max. fold increase” value is on record as 1.7306. Also, the EC (1.5-fold) in assay [1] came to 0.371 µM.

For the compound `Cc1cn2cc(NC(=O)c3ccc(N4CCNCC4)cc3)nc2c(C)n1` [Example 1, N-(6,8-dimethylimidazo[1,2-a]pyrazin-2-yl)-4-(piperazin-1-yl)benzamide], in the assay with SMN protein, the “EC1.5x SMN protein” value was 0.7747 µM and the “max. fold increase” value came out at 1.6736. Also, in assay [1], the EC (1.5-fold) is 0.0316 µM.

For `Cc1cn2cc(NC(=O)c3ccc(N4CCN[C@@H](C)C4)cc3)nc2c(C)n1` [Example 3, N-(6,8-Dimethyl-imidazo[1,2-a]-pyrazin-2-yl)-4-((S)-3-methyl-piperazin-1-yl)-benzamide], in the assay with SMN protein, the “EC1.5x SMN protein” value is 1.47 µM and the “max. fold increase” value was 1.7558. Also, in assay [1], the EC (1.5-fold) came to 0.552 µM.

Consider `Cc1cn2cc(NC(=O)c3ccc(N4CCN(C)CC4)cc3F)nc2c(C)n1` [Example 4, N-(6,8-dimethyl-imidazo[1,2-a]-pyrazin-2-yl)-2-fluoro-4-(4-methylpiperazin-1-yl)benzamide], for which, in the assay with SMN protein, the “EC1.5x SMN protein” value came out at 0.5614 µM and the “max. fold increase” value came out at 1.769. In addition, the EC (1.5-fold) in assay [1] came out at 0.232 µM.

Take `Cc1cn2cc(NC(=O)c3ccc(N4CCN(C)CC4)nc3)nc2c(C)n1` [Example 6, N-(6,8-dimethyl-imidazo[1,2-a]-pyrazin-2-yl)-6-(4-methyl-piperazin-1-yl)nicotinarnide]: in the assay on SMN protein, the “EC1.5x SMN protein” value turned out to be 0.5305 µM and the “max. fold increase” value is on record as 1.8047. Further, in assay [1], the EC (1.5-fold) came to 0.233 µM.

With `CCN1CCN(c2ccc(C(=O)Nc3cn4cc(C)nc(C)c4n3)cn2)CC1` [Example 8, N-(6,8-dimethyl-imidazo[1,2-a]-pyrazin-2-yl)-6-(4-ethyl-piperazin-1-yl)nicotinamide], in the assay with SMN protein, the “EC1.5x SMN protein” value was determined as 0.5175 µM and the “max. fold increase” value is on record as 1.7677. Moreover, in assay [1], the EC (1.5-fold) was determined as 0.201 µM.
